Data published in US9492471B2, “Methods of treating a disease or disorder associated with Bruton'S Tyrosine Kinase” (Celgene Avilomics Research, Inc., priority 2013, dated 2016).
Where two headings read alike, the source gives them in different places.

Key:
Experiment in all cases: HotSpot kinase profiling
Format in all cases: biochemical
CDK1/cyclin E = target: T1, CDK1/cyclin E (Homo sapiens, UniProt P06493)
T1 construct: purchased Reaction Biology Corp
How it was run: (§1)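 Activity is measured by radiolabel transfer captured on P81 filters after a 2 h room-temperature reaction of kinase, substrate and cofactors. Values are percent inhibition against DMSO.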

CDK16/cyclin Y = target: T2, CDK16/cyclin Y (Homo sapiens, UniProt Q00536)
T2 construct: purchased Reaction Biology Corp
How it was run: as §1

GLK/MAP4K3 = target: T3, GLK/MAP4K3 (Homo sapiens, UniProt Q8IVH8)
T3 construct: purchased Reaction Biology Corp
T3 sequence (Q8IVH8 1-894): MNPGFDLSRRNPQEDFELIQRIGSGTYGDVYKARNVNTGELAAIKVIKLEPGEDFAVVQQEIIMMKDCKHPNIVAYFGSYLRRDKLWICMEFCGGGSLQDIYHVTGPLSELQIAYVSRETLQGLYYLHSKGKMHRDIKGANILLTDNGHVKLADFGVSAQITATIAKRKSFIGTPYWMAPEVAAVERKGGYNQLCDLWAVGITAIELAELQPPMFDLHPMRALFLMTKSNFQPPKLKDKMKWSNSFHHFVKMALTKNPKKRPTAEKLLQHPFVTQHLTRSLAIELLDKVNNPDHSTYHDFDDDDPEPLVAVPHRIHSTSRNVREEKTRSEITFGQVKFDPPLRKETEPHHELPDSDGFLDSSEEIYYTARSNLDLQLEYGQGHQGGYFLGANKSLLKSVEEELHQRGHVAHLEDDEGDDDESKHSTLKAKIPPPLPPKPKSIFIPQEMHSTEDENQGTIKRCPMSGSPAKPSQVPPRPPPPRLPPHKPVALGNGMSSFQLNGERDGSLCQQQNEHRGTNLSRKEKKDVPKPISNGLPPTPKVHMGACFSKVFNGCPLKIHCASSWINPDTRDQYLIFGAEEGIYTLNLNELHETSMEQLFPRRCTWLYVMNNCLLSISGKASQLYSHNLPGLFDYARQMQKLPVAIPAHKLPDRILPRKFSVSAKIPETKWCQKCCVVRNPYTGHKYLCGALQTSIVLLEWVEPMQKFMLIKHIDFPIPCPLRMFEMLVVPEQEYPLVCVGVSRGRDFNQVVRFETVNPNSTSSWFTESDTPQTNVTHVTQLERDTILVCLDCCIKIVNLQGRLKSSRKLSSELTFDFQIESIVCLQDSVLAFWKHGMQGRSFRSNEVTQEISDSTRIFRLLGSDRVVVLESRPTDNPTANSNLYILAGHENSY
How it was run: as §1

LATS1 = target: T4, LATS1 (Homo sapiens, UniProt O95835)
T4 construct: purchased Reaction Biology Corp
T4 sequence (O95835 1-1130): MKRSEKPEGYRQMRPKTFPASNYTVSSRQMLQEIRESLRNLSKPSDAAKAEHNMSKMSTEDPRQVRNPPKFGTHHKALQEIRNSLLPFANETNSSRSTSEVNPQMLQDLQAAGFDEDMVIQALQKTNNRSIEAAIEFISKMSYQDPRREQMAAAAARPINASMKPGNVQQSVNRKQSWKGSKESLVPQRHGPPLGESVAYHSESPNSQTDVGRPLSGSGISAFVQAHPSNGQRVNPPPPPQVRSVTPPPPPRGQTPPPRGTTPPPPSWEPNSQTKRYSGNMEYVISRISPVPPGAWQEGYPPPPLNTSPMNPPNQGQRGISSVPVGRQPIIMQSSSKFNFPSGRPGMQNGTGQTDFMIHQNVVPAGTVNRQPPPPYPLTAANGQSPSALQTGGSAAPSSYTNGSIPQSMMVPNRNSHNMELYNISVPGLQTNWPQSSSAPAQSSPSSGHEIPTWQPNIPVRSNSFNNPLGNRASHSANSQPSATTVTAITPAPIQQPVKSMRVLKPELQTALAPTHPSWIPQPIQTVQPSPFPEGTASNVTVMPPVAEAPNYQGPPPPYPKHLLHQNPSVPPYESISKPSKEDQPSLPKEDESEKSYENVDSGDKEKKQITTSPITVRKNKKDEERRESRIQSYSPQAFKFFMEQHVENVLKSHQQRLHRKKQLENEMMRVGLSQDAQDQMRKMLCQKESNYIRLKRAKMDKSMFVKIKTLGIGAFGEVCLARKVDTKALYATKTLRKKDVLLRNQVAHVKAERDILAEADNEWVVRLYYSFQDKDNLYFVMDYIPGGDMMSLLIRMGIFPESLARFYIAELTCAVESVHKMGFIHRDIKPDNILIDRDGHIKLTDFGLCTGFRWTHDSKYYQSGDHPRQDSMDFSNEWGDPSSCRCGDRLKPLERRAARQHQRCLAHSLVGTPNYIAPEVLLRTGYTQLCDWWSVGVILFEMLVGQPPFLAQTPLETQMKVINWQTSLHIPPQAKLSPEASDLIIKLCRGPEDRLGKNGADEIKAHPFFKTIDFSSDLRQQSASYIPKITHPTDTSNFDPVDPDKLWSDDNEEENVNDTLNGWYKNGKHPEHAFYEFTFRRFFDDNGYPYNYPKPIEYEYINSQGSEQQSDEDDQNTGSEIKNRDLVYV
How it was run: as §1

MST3/STK24 = target: T5, MST3/STK24 (Homo sapiens, UniProt Q9Y6E0)
T5 construct: purchased Reaction Biology Corp
How it was run: as §1

ROS/ROS1 = target: T6, ROS/ROS1 (Homo sapiens, UniProt P08922)
T6 construct: purchased Reaction Biology Corp
How it was run: as §1

[1] = read-out: % Enzyme Activity (relative to DMSO controls) Run 1
[2] = read-out: % Enzyme Activity (relative to DMSO controls) Run 2

T6 sequence (P08922 28-2347): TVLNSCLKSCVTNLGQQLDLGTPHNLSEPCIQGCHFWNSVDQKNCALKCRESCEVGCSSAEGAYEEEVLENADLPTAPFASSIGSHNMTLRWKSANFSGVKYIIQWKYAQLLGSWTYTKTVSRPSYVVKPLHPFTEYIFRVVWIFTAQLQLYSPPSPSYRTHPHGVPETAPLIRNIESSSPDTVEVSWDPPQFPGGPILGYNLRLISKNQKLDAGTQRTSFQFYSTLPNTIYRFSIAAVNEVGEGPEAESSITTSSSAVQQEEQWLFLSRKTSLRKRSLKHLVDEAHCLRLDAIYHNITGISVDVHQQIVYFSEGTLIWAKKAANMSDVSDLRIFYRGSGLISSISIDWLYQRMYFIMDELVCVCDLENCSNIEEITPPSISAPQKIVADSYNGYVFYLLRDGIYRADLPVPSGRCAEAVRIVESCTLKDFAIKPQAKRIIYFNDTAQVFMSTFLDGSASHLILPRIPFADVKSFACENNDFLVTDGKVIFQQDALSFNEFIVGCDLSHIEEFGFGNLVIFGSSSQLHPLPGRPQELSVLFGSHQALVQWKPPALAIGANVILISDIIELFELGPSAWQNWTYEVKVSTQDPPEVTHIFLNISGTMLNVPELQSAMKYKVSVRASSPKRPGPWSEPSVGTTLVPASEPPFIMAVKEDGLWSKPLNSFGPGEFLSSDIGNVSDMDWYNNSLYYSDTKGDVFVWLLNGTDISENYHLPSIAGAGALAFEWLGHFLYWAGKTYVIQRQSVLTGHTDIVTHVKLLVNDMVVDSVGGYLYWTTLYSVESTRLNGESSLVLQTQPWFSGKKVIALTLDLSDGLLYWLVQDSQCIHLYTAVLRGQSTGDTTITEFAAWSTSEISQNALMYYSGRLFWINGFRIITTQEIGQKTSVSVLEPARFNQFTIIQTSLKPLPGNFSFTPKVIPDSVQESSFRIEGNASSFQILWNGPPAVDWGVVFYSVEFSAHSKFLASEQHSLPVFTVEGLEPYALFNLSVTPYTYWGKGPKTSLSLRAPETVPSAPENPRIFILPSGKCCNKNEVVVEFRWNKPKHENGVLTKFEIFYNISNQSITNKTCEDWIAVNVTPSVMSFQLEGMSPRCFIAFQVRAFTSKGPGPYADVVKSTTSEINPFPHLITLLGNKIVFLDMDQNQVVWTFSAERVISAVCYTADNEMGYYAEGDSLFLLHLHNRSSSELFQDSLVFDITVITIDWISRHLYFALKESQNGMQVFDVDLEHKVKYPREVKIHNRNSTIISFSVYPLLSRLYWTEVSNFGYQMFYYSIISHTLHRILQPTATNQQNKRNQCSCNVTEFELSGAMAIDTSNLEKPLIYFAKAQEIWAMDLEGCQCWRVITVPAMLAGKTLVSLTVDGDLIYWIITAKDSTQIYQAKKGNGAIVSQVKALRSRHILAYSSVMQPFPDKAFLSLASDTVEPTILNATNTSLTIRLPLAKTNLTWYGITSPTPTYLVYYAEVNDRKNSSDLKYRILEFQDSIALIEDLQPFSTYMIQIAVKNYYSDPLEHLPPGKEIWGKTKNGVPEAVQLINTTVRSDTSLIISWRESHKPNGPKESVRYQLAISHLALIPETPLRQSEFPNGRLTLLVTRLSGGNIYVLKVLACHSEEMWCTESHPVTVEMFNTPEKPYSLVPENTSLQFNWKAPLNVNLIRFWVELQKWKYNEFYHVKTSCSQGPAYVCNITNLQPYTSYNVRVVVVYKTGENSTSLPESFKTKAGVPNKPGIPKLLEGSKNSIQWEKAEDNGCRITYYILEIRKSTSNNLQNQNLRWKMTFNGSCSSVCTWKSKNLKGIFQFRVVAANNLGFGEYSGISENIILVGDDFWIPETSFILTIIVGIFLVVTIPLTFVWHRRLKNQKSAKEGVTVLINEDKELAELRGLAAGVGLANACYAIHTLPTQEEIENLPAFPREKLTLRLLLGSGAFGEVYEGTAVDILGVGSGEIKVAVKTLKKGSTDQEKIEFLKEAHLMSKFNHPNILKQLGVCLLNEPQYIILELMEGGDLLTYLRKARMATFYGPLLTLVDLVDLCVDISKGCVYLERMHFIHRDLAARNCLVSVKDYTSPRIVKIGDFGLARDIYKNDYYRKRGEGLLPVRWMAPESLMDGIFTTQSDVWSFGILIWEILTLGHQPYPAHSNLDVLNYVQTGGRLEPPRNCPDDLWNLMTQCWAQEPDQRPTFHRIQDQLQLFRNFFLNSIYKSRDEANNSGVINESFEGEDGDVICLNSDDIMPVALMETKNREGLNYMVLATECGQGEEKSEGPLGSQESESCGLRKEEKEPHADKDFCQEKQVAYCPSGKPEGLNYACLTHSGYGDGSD
T5 sequence (Q9Y6E0 whole entry): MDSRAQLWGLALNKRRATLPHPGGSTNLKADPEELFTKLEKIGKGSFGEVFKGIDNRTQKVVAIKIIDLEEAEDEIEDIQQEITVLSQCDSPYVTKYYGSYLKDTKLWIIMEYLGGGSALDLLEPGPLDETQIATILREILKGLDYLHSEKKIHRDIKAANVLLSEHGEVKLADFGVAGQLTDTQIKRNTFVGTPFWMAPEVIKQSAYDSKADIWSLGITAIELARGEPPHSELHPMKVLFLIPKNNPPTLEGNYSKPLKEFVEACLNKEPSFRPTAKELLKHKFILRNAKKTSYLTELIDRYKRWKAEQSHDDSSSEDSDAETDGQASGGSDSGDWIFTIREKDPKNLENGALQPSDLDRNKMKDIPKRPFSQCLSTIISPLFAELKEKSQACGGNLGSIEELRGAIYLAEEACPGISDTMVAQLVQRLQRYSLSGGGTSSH
T2 sequence (Q00536 whole entry): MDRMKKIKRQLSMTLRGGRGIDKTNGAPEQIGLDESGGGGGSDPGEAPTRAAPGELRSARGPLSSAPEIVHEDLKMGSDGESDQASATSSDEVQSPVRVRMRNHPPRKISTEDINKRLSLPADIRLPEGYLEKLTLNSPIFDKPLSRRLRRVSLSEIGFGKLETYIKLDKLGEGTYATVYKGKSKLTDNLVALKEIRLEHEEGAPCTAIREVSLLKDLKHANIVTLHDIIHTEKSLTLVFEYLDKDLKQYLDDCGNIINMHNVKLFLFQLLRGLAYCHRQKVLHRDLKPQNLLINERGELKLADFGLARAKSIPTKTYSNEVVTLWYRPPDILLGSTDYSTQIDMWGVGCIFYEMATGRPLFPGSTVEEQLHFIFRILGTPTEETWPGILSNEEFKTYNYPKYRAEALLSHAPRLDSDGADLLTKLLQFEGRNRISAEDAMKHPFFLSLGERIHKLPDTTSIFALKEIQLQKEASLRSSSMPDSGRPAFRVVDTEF
T2 sequence (Q8ND76 whole entry partner): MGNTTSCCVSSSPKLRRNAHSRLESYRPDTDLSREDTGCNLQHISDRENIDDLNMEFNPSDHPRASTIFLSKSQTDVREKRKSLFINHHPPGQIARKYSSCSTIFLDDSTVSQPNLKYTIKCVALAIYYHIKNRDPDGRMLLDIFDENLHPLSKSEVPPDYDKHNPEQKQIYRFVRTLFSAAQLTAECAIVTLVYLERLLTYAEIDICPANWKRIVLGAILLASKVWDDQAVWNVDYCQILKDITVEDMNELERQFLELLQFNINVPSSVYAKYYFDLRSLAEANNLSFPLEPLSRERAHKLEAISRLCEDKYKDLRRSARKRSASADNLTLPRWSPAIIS
T1 sequence (P06493 whole entry): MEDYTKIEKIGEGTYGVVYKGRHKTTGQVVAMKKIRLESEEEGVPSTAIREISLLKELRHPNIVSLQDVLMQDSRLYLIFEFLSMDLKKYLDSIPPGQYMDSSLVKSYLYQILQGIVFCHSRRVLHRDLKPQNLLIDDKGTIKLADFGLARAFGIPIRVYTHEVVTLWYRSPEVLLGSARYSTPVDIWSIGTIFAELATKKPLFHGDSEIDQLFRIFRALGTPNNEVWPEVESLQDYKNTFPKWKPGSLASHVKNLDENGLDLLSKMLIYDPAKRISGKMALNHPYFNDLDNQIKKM
T1 sequence (P24864 whole entry partner): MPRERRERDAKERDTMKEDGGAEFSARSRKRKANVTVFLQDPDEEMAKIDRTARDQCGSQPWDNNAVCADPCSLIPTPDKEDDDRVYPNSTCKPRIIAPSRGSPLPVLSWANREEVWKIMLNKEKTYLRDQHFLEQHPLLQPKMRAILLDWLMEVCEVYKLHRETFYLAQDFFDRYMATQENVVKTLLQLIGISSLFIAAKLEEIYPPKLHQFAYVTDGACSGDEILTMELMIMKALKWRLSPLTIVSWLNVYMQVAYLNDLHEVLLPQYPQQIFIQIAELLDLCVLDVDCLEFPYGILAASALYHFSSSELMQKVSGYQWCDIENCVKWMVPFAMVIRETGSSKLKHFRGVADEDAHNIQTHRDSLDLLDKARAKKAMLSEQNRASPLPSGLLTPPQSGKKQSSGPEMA

C=CC(=O)Nc1cccc(Nc2nc(Nc3ccc(OCCOC)c(F)c3)ncc2F)c1 [Compound 2]
inhibition at 3 µM (CDK1/cyclin E): -1.3% | remaining activity at 3 µM (CDK1/cyclin E; [1]): 100% | remaining activity at 3 µM (CDK1/cyclin E; [2]): 102% | inhibition at 3 µM (CDK16/cyclin Y): -3.73% | remaining activity at 3 µM (CDK16/cyclin Y; [1]): 104% | remaining activity at 3 µM (CDK16/cyclin Y; [2]): 103% | inhibition at 3 µM (GLK/MAP4K3): -5.08% | remaining activity at 3 µM (GLK/MAP4K3; [1]): 102% | remaining activity at 3 µM (GLK/MAP4K3; [2]): 108% | inhibition at 3 µM (LATS1): 10.3% | remaining activity at 3 µM (LATS1; [1]): 89.5% | remaining activity at 3 µM (LATS1; [2]): 89.8% | inhibition at 3 µM (MST3/STK24): 14.5% | remaining activity at 3 µM (MST3/STK24; [1]): 86.6% | remaining activity at 3 µM (MST3/STK24; [2]): 84.5% | inhibition at 3 µM (ROS/ROS1): 86.6% | remaining activity at 3 µM (ROS/ROS1; [1]): 13.5% | remaining activity at 3 µM (ROS/ROS1; [2]): 13.3%
